How the values were obtained:
FGF1D promoter = experiment: FGF family promoter luciferase reporter screen by NHRs, FGF1D; assay type: cell-based, human; conditions: FIG. 43, in words
Description: (§1) Screening for FGF regulation by NHRs. The methods described herein provide a straightforward, high throughput, sensitive and quantitative strategy to identify therapeutic agonists and antagonists that can predictably modulate FGF and FGFR expression for therapeutic benefit. Promoter constructs were designed and screened for all 22 members of the FGF-family for novel regulation by the NHRs. Of particular interest is the strong and specific transcriptional regulation of FGF1A, one of the alternative splice variants of FGF1, by PPARγ (FIG. 43). The FGF 1 gene is regulated by at least three (A, B and D) different promoters. Alternative splicing of these promoters to the three exons of the FGF1 gene results in identical but differentially expressed FGF1 polypeptides (FIG. 44). FGF1A is highly expressed in heart, kidney and adipose, FGF1B is highly expressed in brain and FGF1D is highly expressed in liver.

MCP-1 promoter = experiment: NHR-promoter luciferase screen, MCP-1 promoter; assay type: cell-based
Outline: (§2)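 CV-1 cells were co-transfected with 50 ng NHR (homodimer or NHR/RXR heterodimer), 100 ng promoter-luciferase construct and 50 ng LacZ. Luciferase was normalized to LacZ and to a no-NHR/no-ligand control.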

hMyoD promoter = experiment: NHR-promoter luciferase screen, hMyoD promoter; assay type: cell-based, human
Outline: as §2

mDio1 promoter = experiment: NHR-promoter luciferase screen, mDio1 promoter; assay type: cell-based, mouse
Outline: as §2

FGF1A promoter = experiment: FGF family promoter luciferase reporter screen by NHRs, FGF1A; assay type: cell-based, human; conditions: FIG. 43, in words
Description: as §1
FGF1A promoter analysis. To gain more insight into the regulation of the FGF1A promoter by PPARγ, the putative PPRE was localized. […] The evolutionary conservation of FGF1A was determined and found to be highly conserved in a wide range of mammals (bovine, canine, horse, chimpanzee, human, orangutan, rat, mouse, and opossum). […] In addition to a strong conservation of the PPRE in this promoter, several other highly conserved elements were detected (e.g. SP1, HMTB, EVI1 and E-box).

[1] = transcription factor +/- ligand, control = 1.00
[2] = Dio1, HR component without or with its ligand

PPARg: Peroxisome proliferator activated receptor γ (NR1C3), cDNA driver
activation of FGF1D promoter, luciferase reporter assay (FGF1D promoter): moderate activation | Normalized Luc. act., normalized to control (MCP-1 promoter; MCP-1 promoter reporter, HR without or with its ligand, relative to control): 1.4 | Luc. act., normalized to lacZ (MCP-1 promoter; MCP-1 promoter reporter, hormone receptor (HR) without or with its ligand): 146.1 | mMCP-1 promoter reporter activity (MCP-1 promoter; [1]): 1.36 | Luc. act., normalized to lacZ (hMyoD promoter; MyoD promoter reporter, co-transfected HR, without or with its ligand): 74.5 | Normalized Luc. act., normalized to control (hMyoD promoter; MyoD promoter reporter, co-transfected HR, without or with its ligand, relative to control): 1.2 | luciferase activity normalized to lacZ activity and to a control, hMyoD (hMyoD promoter; hMyoD promoter-luciferase, CV-1 cells, NHR +/- ligand, control = 1.00): 1.18 | Luc. act., normalized to lacZ (mDio1 promoter; [2]): 9.9 | Normalized Luc. act., normalized to control (mDio1 promoter; [2]): 2.2 | mDio1 promoter reporter activity (mDio1 promoter; [1]): 2.23 | activation of FGF1A promoter, luciferase reporter assay (FGF1A promoter): strong activation
